Test results as given in paper PMC10267138, “A polyamine acetyltransferase regulates the motility and biofilm formation of Acinetobacter baumannii” (Nature Communications, 2023).
One block for each compound: values may come before it.

Legend:
Dpa = target: T1, Dpa (Acinetobacter baumannii, UniProt V5VBK4); assay: X-ray crystal structure; assay type: binding; settings: crystallised with 0.1 mM acetyl-CoA, pH 8.5
T1 construct: gene ABR2091_2278; his-tagged Dpa from pKK223.3, expressed in E. coli DJ624 delta-ara; C-terminal beta-strand swapped dimer

SpeG = target: T2, SpeG (Escherichia coli, UniProt P0A951); assay: DTNB acetylation assay; assay type: biochemical; settings: acetyl-CoA co-substrate 0.5 mM; substrate 5 mM; pH 8.0; 30 °C
T2 construct: his-tagged SpeG from pKK223.3, expressed in E. coli DJ624 delta-ara
T2 sequence (P0A951 2-186): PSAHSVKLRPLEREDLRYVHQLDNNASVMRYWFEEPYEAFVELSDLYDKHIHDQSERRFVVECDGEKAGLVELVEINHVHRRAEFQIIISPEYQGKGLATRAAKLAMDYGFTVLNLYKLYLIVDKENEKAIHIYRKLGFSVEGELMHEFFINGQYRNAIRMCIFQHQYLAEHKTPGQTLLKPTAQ

[1] = target: his-Dpa (A. baumannii diaminopropane acetyltransferase Dpa, wild type) (Acinetobacter baumannii); assay: SEC; analytic SEC on Superdex75 increase, 50 mM Tris-HCl pH 8, 250 mM NaCl; 500 μL of 20 μM protein injected; where indicated pre-incubated with 5-fold molar excess of acCoA and/or 1,3-DAP
[2] = target: his-Dpa (A. baumannii diaminopropane acetyltransferase Dpa, wild type) (Acinetobacter baumannii); assay: crystal structure; his-Dpa at 10 mg/ml crystallised with 0.1 mM acetyl-CoA; 0.2 M sodium acetate, 0.1 M Tris-HCl pH 8.5, 30% PEG 4000, 20 °C
[3] = target: his-Dpa_(Y128F) (catalytically impaired Dpa) (Acinetobacter baumannii); assay: crystal structure

Compound: CC(=O)SCCNC(=O)CCNC(=O)[C@H](O)C(C)(C)COP(=O)(O)OP(=O)(O)OC[C@H]1O[C@@H](n2cnc3c(N)ncnc32)[C@H](O)[C@@H]1OP(=O)(O)O [acetyl-CoA]
- X-ray crystal structure (Dpa): we determined the structure of Dpa bound to acCoA

Compound: NCCCCNCCCN [spermidine]
- DTNB acetylation assay (SpeG): SpeG acetylated the long polyamines Spermine and Spermidine

Compound: NCCCNCCCCNCCCN [spermine]
- DTNB acetylation assay (SpeG): SpeG acetylated the long polyamines Spermine and Spermidine

- stoichiometry N [1]: 2
- stoichiometry N [2]: 2
Compound: his-Dpa (A. baumannii diaminopropane acetyltransferase Dpa, wild type) (enzyme)

Compound: his-Dpa_(Y128F) (catalytically impaired Dpa) (enzyme)
- stoichiometry N [3]: 2
